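All cell lines were grown in 96-well plates and treated with compound for 48 hours. At the GI50, growth is halved. TGI: total growth inhibition.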 Bounds are passed on as bounds.

Some test systems named below: KM12 colon; SN12C renal; RXF 393 renal; SW-620 colon; MDA-MB-231 breast; DU-145 prostate; OVCAR-4 ovarian; BT-549 breast; LOX IMVI melanoma; K-562 leukemia.
Common to all, as to test: DTP human tumour cell line panel, 48 h

For orientation: GI50 means the concentration giving 50% growth inhibition. In general, TGI refers to the concentration giving total growth inhibition. A higher TGI goes with less potent growth arrest. As for `CCCCCCCCCCCCCCCC1=NCCN1`, the GI50 with KM12 colon was 1.83 µM; in the test with SN12C renal, 2.07 µM; in the test on RXF 393 renal, 1.75 µM; in the test on SW-620 colon it was 1.9 µM; in the test with MDA-MB-231 breast, 2.23 µM; in the test on DU-145 prostate, 1.9 µM. Further, the GI50 in the test on OVCAR-4 ovarian was 2.38 µM; with BT-549 breast it was 6.39 µM. The TGI in the test on KM12 colon came to 3.45 µM; in the test on SN12C renal, 4.29 µM; with RXF 393 renal, 3.38 µM; with SW-620 colon it was 3.77 µM; with MDA-MB-231 breast it was 4.68 µM; in the test with DU-145 prostate it was 3.57 µM. The figures for the total growth inhibition concentration (TGI) in the test with OVCAR-4 ovarian and in the test on BT-549 breast were 6.89 µM and 29.7 µM, respectively.

With `COC(=O)c1ccc2c(c1)C(=O)c1c-2n(CCCCl)c(=O)c2cc([N+](=O)[O-])ccc12`, the GI50 in the test on KM12 colon was above 100 µM; in the test on SN12C renal, above 100 µM; in the test on RXF 393 renal, above 100 µM; in the test on SW-620 colon it was 44.6 µM; with LOX IMVI melanoma, 40.9 µM; in the test on K-562 leukemia, 59 µM. Further, the GI50 is above 100 µM in the test on MDA-MB-231 breast, 37.2 µM in the test on DU-145 prostate, above 100 µM in the test with OVCAR-4 ovarian and 44.4 µM with BT-549 breast. The total growth inhibition concentration (TGI) in the test with KM12 colon, in the test on SN12C renal, in the test with RXF 393 renal, with SW-620 colon, in the test on LOX IMVI melanoma and in the test on K-562 leukemia was above 100 µM throughout. For the same compound, the TGI with MDA-MB-231 breast, in the test on DU-145 prostate, with OVCAR-4 ovarian and in the test on BT-549 breast was above 100 µM throughout.

As for `CC1=C2CC(C)(C)/C=C\C(=O)/C(C)=C\C3=C[C@H](C)C[C@]3(O2)C1=O`, the TGI in the test with KM12 colon came to 6 µM; in the test on SN12C renal it was 10.2 µM; in the test on RXF 393 renal it was 2.13 µM; in the test with SW-620 colon it was 1.49 µM; in the test with LOX IMVI melanoma it was 1.64 µM; with K-562 leukemia, 14.4 µM. Besides, the TGI amounted to 9.33 µM in the test on MDA-MB-231 breast, 12.1 µM in the test with DU-145 prostate, 5.28 µM with OVCAR-4 ovarian and 1.5 µM in the test on BT-549 breast.

With `COc1ccc(C#Cc2ccc(=O)oc2-c2cc(OC)c(OC)c(OC)c2)cc1O`, the GI50 with KM12 colon is 3.54 µM; in the test on SN12C renal it was 20.7 µM; with RXF 393 renal, 1.12 µM; in the test with SW-620 colon, 1.22 µM; with LOX IMVI melanoma, 12.3 µM; in the test on K-562 leukemia it was 0.505 µM. Further, the GI50 was 6.25 µM in the test with MDA-MB-231 breast, 8.96 µM with DU-145 prostate, 20.3 µM in the test with OVCAR-4 ovarian and 7.37 µM with BT-549 breast. The concentration for total growth inhibition (TGI) was above 100 µM with KM12 colon; above 100 µM in the test on SN12C renal; 8.43 µM in the test on RXF 393 renal; above 100 µM in the test on SW-620 colon; above 100 µM in the test on LOX IMVI melanoma; above 100 µM in the test on K-562 leukemia. The TGI is above 100 µM with MDA-MB-231 breast, above 85.9 µM in the test with DU-145 prostate, above 100 µM in the test on OVCAR-4 ovarian and above 64.2 µM with BT-549 breast.

On to `O=C(CC1(O)C(=O)N(Cc2ccccc2)c2ccc(Cl)cc21)c1ccc(C(=O)NCC2CCC3(CC2)OOC2(CCCCC2)OO3)cc1` (centres undefined), for which the GI50 is 0.268 µM with KM12 colon; 0.797 µM with SN12C renal; 0.247 µM in the test with RXF 393 renal; 2.21 µM in the test with SW-620 colon; 0.0573 µM with LOX IMVI melanoma; 1.57 µM in the test with K-562 leukemia. Also, the 50% growth inhibitory concentration (GI50) is 0.327 µM in the test on MDA-MB-231 breast, 0.179 µM with DU-145 prostate, 2.45 µM with OVCAR-4 ovarian and 2.42 µM with BT-549 breast. The total growth inhibition concentration (TGI) in the test on KM12 colon is 0.782 µM; with SN12C renal, 2.38 µM; in the test on RXF 393 renal, 0.608 µM; with SW-620 colon, 5.88 µM; in the test on LOX IMVI melanoma it was 0.197 µM; in the test on K-562 leukemia, above 100 µM. The concentration for total growth inhibition (TGI) with MDA-MB-231 breast came to 0.988 µM; with DU-145 prostate, 0.326 µM; in the test with OVCAR-4 ovarian, 11.5 µM; with BT-549 breast, 15 µM.

As to `O=C1C(=C(C(F)(F)Cl)C(F)(F)Cl)C2CCC1C2` (centres undefined), the TGI in the test on KM12 colon is above 8.65 µM; with SN12C renal it was 3.61 µM; in the test with RXF 393 renal it was 3.07 µM; with SW-620 colon, 3.98 µM; with LOX IMVI melanoma, 2.89 µM; in the test with K-562 leukemia it was above 10 µM. For the same compound, the TGI with MDA-MB-231 breast is 3.07 µM; with DU-145 prostate it was above 10 µM; in the test with OVCAR-4 ovarian, 8.31 µM; in the test with BT-549 breast it was 4 µM.

For the compound `O=C1CSC(=S)N1c1ccco1`, the TGI with KM12 colon was 52.6 µM; in the test with SN12C renal, above 100 µM; with RXF 393 renal it was above 100 µM; in the test with SW-620 colon, above 100 µM; in the test with LOX IMVI melanoma, above 100 µM; with K-562 leukemia it was above 100 µM. Besides, the TGI is 92.7 µM with MDA-MB-231 breast, above 100 µM with DU-145 prostate, above 100 µM in the test on OVCAR-4 ovarian and 50.4 µM in the test with BT-549 breast.

For `Cc1ccc2oc(=O)cc(/C(=C3/C=CC=N3)c3ccc[nH]3)c2c1`, the GI50 is 0.344 µM with KM12 colon; 0.672 µM with SN12C renal; 0.256 µM in the test on RXF 393 renal; 0.396 µM in the test on SW-620 colon; 0.343 µM with LOX IMVI melanoma; 0.802 µM in the test on MDA-MB-231 breast. For the same compound, the results for the concentration for 50% growth inhibition (GI50) with DU-145 prostate, with OVCAR-4 ovarian and in the test with BT-549 breast were 0.361 µM, 1.58 µM and 0.346 µM, respectively. Besides, the TGI with KM12 colon amounted to 1.71 µM; with SN12C renal, 3.36 µM; in the test with RXF 393 renal it was 0.748 µM; with SW-620 colon, 13.7 µM; in the test with LOX IMVI melanoma, 1.41 µM; in the test with MDA-MB-231 breast, 3.07 µM. For the same compound, the TGI with DU-145 prostate amounted to 10.8 µM; in the test on OVCAR-4 ovarian, 9.56 µM; with BT-549 breast it was 1.58 µM.

Take `CC(=O)O[C@H]([C@H](OC(C)=O)[C@H](C)OC(C)=O)[C@@H](/C=C/[C@@H]1CC=CC(=O)O1)OC(C)=O`: the GI50 in the test with KM12 colon is above 100 µM; in the test with SN12C renal, 84.1 µM; in the test with RXF 393 renal, above 100 µM; in the test with SW-620 colon it was 40 µM; in the test with LOX IMVI melanoma it was 57.1 µM; in the test with K-562 leukemia, above 100 µM. Further, the GI50 was above 100 µM with MDA-MB-231 breast, 37.9 µM in the test with DU-145 prostate, 45.3 µM in the test on OVCAR-4 ovarian and 22.3 µM in the test with BT-549 breast. Moreover, the TGI in the test on KM12 colon, in the test on SN12C renal, in the test on RXF 393 renal, with SW-620 colon, with LOX IMVI melanoma and with K-562 leukemia was above 100 µM in each case. Besides, the concentration for total growth inhibition (TGI) is above 100 µM in the test on MDA-MB-231 breast, above 100 µM in the test with DU-145 prostate, above 100 µM in the test on OVCAR-4 ovarian and 51.3 µM in the test on BT-549 breast.

The values above are taken from PubChem BioAssay (NCI).
